The target of assay [1] is Voltage-dependent T-type calcium channel subunit alpha-1H (Homo sapiens, UniProt O95180). It is filed as functional.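 Further: channel activity triggered by adding a high calcium stimulation buffer.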
The target in assay [2] is T1, Fatty acid synthase (Homo sapiens, UniProt P49327). The experiment in a line: inhibition of human FAS-TE enzyme activity – biochemical, endpoint fluorescence intensity, uHTS hits, dose response (AID 624327).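 Further: fluorescence from hydrolysis of an O-methyl fluorescein acyl ester substrate by the enzyme.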 Type of assay: functional.
In assay [3] the target is T1, Fatty acid synthase. The experiment in a line: inhibition of human FAS-TE enzyme activity – biochemical, kinetic fluorescence intensity, dose response (AID 624326).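 Further: rate of fluorescence rise from hydrolysis of a fluorogenic O-methyl fluorescein ester substrate.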 Type of assay: functional.
Assay [4] can be described thus: cells. Type of assay: functional, cell-based.
The nature of assay [5]: cells. Type of assay: functional, cell-based. This is another data set of the same source.
Assay [6] is described as follows: cells. Type of assay: functional.
The target of assay [7] is Cytochrome P450 2C9 (Homo sapiens, UniProt P11712).
In assay [8] the target is Cytochrome P450 2C19 (Homo sapiens, UniProt P33261). The experiment in a line: Cytochrome panel assay with activity outcomes. Panel member name: p450-cyp2c19 Compounds with AC50 equal or less than 10 uM are considered active. To be noted: read-out: AC50. It is filed as functional.
Assay [9] can be described thus: off-target signal loss in HeLa-CEM21 co-culture – HeLa F-luc CTL cells, cherry-picked, counter-screen for HIV-1 Env fusion inhibitor project, dose response (AID 652040).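 Further: potency for signal decrease marking cytotoxic or nonspecific inhibition.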 Type of assay: functional, cell-based.
Assay [10] in a line: blockers of HIV-1 envelope-mediated cell-cell fusion – cherry-pick, dose response (AID 652057). It is filed as functional, cell-based.
A short description of assay [11]: blockers of HIV-1 ZM109 envelope-driven cell-cell fusion – HeLa effector, CEM target cells, luciferase, cherry-pick, dose response (AID 652058).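 Further: luciferase signal from HIV-1 Env mediated cell-cell fusion of effector and target cells.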 Type of assay: functional, cell-based.
Assay [12] in a line: HIV-1 AD8 envelope cell-cell fusion blockers – cherry-pick, dose response (AID 652062).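 Further: luciferase signal from cell-cell fusion driven by HIV-1 clade B AD8 Env; potency is for inhibitors of fusion seen as a drop in luminescence.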 It is filed as functional, cell-based.
Assay [13] concerns the target T2, Heat shock factor protein 1 (Mus musculus, UniProt P38532).
T2 sequence (P38532 whole entry): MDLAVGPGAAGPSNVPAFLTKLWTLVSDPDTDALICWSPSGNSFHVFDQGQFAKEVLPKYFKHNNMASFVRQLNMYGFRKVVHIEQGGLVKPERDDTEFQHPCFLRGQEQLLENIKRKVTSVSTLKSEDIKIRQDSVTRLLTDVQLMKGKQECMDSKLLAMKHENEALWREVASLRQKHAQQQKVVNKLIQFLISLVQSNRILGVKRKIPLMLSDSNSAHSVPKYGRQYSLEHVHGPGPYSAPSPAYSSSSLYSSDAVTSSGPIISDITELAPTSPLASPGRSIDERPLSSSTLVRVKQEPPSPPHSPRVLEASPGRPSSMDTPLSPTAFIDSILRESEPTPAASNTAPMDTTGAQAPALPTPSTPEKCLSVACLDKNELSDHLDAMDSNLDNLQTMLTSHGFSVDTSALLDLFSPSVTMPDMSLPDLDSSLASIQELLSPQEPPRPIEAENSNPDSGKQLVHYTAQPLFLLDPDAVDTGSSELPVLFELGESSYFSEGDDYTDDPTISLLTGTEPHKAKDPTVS
The experiment in a line: enhancement of HSF1-driven luciferase signal – cell-based, NIH3T3, luminescence, dose retest, confirmation (AID 435004).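 Further: stress induced by proteasome inhibitor MG132 added 30 min after compound; luciferase reporter driven by HSF1 response element in NIH3T3 cells; actives raise luminescence as potentiators of the MG132 stress response.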 It is filed as functional.

Assay [14] in a line: intracellular Trypanosoma cruzi inhibitors in host cells – cell-based, plate reader, cherry-pick samples, set 3, dose response (AID 651818).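 Further: compounds incubated with infected cells for about four days.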 It is filed as functional.
Assay [15] deals with Streptococcus. Description: GAS UMAA2166 growth inhibition – luminescence, BacTiterGlo, counter-screen for streptokinase expression inhibitor project, dose response (AID 1915).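 Further: potency for reduction of bacterial viability or growth.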 It is filed as functional, organism-based. A general note: The purpose of a counterscreen is to sort out artefacts and off-target activity.
Assay [16] concerns the target T3, Streptokinase A (Streptococcus pyogenes serotype M1, UniProt P10520).
T3 sequence (P10520 whole entry): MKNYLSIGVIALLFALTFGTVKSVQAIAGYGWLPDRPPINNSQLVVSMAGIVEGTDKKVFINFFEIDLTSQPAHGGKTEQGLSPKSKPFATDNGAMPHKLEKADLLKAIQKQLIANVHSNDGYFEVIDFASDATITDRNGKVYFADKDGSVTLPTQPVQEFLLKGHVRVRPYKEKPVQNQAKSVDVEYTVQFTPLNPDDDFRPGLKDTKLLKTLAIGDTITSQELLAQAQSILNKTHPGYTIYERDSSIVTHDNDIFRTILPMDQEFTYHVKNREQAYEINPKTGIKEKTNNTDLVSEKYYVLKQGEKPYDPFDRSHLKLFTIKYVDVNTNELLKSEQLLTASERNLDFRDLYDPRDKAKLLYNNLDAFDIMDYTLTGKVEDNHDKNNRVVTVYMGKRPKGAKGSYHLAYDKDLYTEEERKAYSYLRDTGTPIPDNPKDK
Description: viability-normalized secreted streptokinase activity reduction – plasminogen activation absorbance, OD405, dose response (AID 1914).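 Further: secreted streptokinase activity via plasminogen activation per viability signal from cell pellet.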 It is filed as functional, Streptococcus pyogenes M1 GAS.

Assay [17] deals with Streptococcus sp. 'group A'. Description: Streptococcus pyogenes SK(-)GAS viability under kanamycin – luminescence, BacTiterGlo, confirmation, counter-screen for streptokinase expression inhibitor project, dose response (AID 1900). Type of assay: functional, organism-based.
The nature of assay [18]: Luminescence Cell-Based Dose Retest to Confirm Inhibitors of Cancer Stem Cells. [Related pubchem assays (depositor defined):AID2717, AID2721]. Type of assay: functional. The following applies: Homo sapiens.
Assay [19] is described as follows: alpha-synuclein stem-loop luciferase translation blockers – H4 neuroglioma cells, luminescence, confirmation (AID 1988). Type of assay: functional, cell-based.
The nature of assay [20]: luciferase reporter signal suppression in cells – H4 neuroglioma cells, luminescence, dose response (AID 1990). It is filed as functional, cell-based. For orientation: Reporter assays use an easily measured gene product as a stand-in for the process of interest.
A short description of assay [21]: Luminescence Cell-Based Dose Response HTS to Identify Inhibitors of 5'UTR Stem-Loop Driven Prion Protein mRNA Translation in H4 Neuroglioblastoma Cells. [Related pubchem assays: 1827 (Project Summary), 1813 (Primary HTS)]. It is filed as functional.

Activity calls are given as the source filed them.

T1 sequence (P49327 whole entry): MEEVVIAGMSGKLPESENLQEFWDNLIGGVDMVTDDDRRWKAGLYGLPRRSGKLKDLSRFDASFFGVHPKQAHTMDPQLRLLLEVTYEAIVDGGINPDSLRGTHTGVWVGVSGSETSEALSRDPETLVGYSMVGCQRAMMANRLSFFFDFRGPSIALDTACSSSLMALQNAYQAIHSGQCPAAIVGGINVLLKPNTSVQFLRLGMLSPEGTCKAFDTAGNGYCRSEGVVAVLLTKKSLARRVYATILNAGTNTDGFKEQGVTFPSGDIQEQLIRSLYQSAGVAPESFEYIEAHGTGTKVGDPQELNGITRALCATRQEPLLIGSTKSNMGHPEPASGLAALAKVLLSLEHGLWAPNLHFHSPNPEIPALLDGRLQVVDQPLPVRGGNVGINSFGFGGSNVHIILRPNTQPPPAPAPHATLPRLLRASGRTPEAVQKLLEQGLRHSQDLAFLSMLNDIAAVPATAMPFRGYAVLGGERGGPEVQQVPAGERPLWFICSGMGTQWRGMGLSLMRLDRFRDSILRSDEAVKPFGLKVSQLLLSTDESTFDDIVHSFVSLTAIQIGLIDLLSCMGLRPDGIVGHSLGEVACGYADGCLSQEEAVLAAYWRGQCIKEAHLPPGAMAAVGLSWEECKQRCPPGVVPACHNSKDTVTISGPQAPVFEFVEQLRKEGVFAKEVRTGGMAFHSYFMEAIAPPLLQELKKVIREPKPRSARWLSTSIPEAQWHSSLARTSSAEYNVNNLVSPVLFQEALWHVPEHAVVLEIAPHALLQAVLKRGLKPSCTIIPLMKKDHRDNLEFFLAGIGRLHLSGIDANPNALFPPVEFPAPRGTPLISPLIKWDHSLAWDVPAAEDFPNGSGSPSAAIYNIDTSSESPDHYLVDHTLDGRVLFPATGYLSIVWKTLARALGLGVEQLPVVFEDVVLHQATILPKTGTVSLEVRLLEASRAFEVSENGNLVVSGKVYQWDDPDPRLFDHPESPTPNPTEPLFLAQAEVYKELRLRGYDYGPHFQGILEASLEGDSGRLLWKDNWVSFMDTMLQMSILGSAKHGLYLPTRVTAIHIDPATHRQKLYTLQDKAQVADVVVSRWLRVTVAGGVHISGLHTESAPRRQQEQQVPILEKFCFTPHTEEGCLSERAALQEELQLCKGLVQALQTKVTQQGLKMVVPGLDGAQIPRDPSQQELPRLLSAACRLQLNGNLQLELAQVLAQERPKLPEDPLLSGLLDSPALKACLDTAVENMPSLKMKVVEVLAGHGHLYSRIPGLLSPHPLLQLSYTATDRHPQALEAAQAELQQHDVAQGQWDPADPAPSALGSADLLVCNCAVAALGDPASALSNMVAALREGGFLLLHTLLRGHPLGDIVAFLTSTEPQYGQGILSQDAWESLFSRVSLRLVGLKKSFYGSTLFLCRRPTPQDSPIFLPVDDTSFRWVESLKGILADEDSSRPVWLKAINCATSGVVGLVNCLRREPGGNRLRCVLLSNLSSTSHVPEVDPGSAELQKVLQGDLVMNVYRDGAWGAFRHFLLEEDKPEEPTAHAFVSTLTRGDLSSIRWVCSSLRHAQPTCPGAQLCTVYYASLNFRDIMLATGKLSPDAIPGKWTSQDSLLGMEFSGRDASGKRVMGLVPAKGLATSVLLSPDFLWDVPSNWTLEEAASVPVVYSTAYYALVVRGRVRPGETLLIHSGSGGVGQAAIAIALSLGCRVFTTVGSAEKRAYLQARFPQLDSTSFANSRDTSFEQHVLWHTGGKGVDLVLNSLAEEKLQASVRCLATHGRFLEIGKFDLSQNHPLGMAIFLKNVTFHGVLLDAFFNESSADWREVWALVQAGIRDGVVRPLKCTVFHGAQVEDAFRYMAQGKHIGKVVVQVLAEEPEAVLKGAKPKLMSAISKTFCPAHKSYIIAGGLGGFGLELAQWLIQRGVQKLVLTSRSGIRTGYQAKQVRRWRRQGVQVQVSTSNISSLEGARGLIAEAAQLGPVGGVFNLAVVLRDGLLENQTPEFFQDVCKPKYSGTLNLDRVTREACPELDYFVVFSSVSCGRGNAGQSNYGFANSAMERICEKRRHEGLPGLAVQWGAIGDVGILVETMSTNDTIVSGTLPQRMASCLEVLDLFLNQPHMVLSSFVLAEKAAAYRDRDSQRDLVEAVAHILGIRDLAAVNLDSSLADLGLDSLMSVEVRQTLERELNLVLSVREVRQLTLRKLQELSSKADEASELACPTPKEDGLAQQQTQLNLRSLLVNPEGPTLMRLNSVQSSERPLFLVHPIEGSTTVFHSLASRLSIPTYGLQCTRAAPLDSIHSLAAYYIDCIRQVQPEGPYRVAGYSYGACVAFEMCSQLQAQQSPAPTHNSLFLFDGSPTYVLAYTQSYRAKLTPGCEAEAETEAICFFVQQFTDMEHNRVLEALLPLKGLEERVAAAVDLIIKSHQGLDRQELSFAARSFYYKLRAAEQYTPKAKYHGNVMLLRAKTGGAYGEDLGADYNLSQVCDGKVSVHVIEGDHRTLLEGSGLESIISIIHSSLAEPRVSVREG
Chain of Voltage-dependent T-type calcium channel subunit alpha-1H (O95180 whole entry): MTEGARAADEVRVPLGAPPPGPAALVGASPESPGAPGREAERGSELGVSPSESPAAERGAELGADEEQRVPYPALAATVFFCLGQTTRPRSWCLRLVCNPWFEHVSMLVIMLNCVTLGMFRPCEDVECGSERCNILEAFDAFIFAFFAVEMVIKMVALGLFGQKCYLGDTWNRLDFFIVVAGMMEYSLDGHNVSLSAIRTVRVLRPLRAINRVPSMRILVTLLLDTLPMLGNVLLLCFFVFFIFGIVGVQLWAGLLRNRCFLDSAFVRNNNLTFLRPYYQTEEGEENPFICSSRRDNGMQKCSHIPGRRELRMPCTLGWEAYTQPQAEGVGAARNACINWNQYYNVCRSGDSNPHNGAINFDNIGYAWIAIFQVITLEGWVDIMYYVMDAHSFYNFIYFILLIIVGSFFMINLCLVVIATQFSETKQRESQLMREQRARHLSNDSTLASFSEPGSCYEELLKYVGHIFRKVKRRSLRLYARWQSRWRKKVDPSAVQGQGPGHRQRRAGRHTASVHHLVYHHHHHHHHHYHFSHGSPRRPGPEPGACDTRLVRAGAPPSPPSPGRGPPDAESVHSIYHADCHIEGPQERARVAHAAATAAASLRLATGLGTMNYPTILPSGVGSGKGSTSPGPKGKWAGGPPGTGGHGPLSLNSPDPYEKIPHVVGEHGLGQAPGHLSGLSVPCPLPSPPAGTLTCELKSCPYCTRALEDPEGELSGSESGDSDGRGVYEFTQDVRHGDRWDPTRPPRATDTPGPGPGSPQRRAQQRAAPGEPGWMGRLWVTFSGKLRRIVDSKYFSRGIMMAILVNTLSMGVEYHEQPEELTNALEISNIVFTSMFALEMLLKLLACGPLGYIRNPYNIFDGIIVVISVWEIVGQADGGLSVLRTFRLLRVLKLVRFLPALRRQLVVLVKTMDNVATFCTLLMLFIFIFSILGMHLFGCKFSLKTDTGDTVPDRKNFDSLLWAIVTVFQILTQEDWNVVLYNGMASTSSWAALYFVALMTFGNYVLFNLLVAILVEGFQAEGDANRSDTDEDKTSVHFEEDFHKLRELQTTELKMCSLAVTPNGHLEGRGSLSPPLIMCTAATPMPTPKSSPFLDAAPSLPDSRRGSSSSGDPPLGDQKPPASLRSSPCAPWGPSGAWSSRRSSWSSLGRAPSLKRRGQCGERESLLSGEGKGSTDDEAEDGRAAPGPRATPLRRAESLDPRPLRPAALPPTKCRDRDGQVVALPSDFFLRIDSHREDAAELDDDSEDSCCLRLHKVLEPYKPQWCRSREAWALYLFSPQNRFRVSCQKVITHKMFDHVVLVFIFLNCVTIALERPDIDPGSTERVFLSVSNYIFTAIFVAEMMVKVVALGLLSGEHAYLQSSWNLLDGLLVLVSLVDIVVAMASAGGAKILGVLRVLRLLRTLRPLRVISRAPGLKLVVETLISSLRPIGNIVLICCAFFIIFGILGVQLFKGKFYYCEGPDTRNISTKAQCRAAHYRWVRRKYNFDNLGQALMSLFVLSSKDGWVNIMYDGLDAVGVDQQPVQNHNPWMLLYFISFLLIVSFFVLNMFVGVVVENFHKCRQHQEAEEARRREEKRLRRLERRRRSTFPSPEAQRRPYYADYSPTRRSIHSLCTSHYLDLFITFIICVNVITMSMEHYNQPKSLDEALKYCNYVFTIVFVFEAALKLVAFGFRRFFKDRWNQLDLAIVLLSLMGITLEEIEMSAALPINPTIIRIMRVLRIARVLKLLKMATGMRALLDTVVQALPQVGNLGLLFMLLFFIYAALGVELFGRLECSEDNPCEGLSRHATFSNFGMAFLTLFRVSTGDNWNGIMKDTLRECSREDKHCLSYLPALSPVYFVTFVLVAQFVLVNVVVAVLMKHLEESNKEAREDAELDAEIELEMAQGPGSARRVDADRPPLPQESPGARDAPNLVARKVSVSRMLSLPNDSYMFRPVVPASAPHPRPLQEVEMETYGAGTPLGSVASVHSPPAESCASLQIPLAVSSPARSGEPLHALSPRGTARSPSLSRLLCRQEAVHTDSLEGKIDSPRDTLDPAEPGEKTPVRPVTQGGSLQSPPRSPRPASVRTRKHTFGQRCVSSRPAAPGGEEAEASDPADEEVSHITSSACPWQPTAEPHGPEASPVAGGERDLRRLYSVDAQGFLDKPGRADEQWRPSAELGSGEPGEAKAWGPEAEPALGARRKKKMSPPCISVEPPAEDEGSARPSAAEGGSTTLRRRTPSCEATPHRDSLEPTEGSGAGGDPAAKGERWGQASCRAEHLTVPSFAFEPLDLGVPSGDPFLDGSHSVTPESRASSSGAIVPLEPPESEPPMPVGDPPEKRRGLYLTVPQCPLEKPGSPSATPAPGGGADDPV

On to `COc1cccc(N2CCN(CC(=O)Nc3nnc(-c4ccccc4)s3)CC2)c1`, for which the EC50 – broadly, the midpoint of the concentration-response curve – in [1] was 6.4 µM (active).
As to `O=C(CCNC(=O)c1ccc([N+](=O)[O-])cc1)NCCc1ccc(Cl)cc1`, the IC50 (as a rule, the concentration at which inhibition is half-maximal) was 8.77 µM (active) in [2] and 7.38 µM (active) in assay [3].
Turning to `COc1ccc(NC(=O)c2cccc(NC(=O)c3ccco3)c2)c(OC)c1`, the EC50 in [4] and in assay [5] was > 350 µM (not active) throughout.
Take `Cn1c(-c2ccccc2)cnc1NCc1cccc([N+](=O)[O-])c1`: the IC50 in [2] was 6.81 µM (active); in [3], 8.79 µM (active).
`O=C(CN1CCN(c2ccccc2)CC1)Nc1cccc([N+](=O)[O-])c1`: the IC50 in [2] was 9.24 µM (active); in assay [3], 10.7 µM (active).
As to `Cc1c(Br)c([N+](=O)[O-])nn1CC(=O)Nc1ccc(Cc2ccncc2)cc1`, the IC50 in assay [2] was 9.53 µM (active); in assay [3] it was 8.12 µM (active).
With `Cc1ccccc1CSCCNC(=O)CN(c1ccc2c(c1)OCO2)S(C)(=O)=O`, the EC50 in assay [1] was 5 µM (active).
For `O=C(COC(=O)CCc1c[nH]c2ccccc12)Nc1cc([N+](=O)[O-])ccc1Cl`, the IC50 in assay [2] was 15.2 µM (active); in assay [3], 10.7 µM (active); in [6], 4.54 µM (active).
Take `Cc1ccc(C)c(N2CCN(C(=O)CC3Sc4ccccc4NC3=O)CC2)c1` (stereo unspecified): the EC50 in assay [1] is 3.76 µM (active).
As for `COCCNC(=O)c1sc2nc(-c3ccccc3)cn2c1C`, the AC50 (as a rule, the midpoint of the concentration-response curve, whichever way the signal moves) in [7] was 28.2 µM (inconclusive); in assay [8], 20 µM (inconclusive). In addition, the EC50 in assay [4] and in assay [5] was > 350 µM (not active) in each case.
As to `COc1ccc(Cn2nnnc2C(c2cc3cc(C)cc(C)c3nc2O)N2CCOCC2)cc1` (stereo unspecified), the AC50 in assay [9] is 4.7 µM (active); in assay [10] it was 3.39 µM (active); in [11], 4.35 µM (active); in assay [12], 5.51 µM (active).
In the case of `CCC(=O)Nc1ccc(S(=O)(=O)N2CCc3ccccc3C2)cc1`, the EC50 in [1] was 7.83 µM (active).
As to `CCN(CC)S(=O)(=O)c1ccc(N2CCOCC2)c(NC(=O)c2cccc3ccccc23)c1`, the EC50 in assay [4] and in assay [5] was > 350 µM (not active) throughout.
On to `N#Cc1cc(-c2ccccc2)cn(Cc2c(Cl)cccc2Cl)c1=O`, for which the values for the IC50 in [2] and in assay [3] were 7.42 µM (active) and 8.23 µM (active), respectively.
For the molecule `CC(C(=O)N1c2ccccc2Sc2ccccc21)n1nnc(-c2cccs2)n1` (stereo unspecified), the EC50 in assay [1] is 6.38 µM (active).
In the case of `N#C/C(=C\c1cn(CCOc2ccccc2)c2ccccc12)C(=O)NCC1CCCO1` (stereo unspecified), the EC50 in assay [1] is 5.31 µM (active).
With `O=[N+]([O-])c1cccc(NC(=S)N2CCc3ccccc3C2)c1`, the IC50 in [2] was 16.5 µM (active); in [3] it was 10.6 µM (active).
Consider `c1ccc(Cn2nnnc2C(c2cccs2)N2CCc3ccccc3C2)cc1` (stereo unspecified), for which the results for the EC50 in [1] and in assay [13] were 0.844 µM (active) and > 260 µM (inactive), respectively.
Consider `CC[C@@]12C(=O)N(c3ccc(C)cc3)C(=O)N1[C@H](c1ccc(OC)cc1)[C@@H]1C(=O)N(C(C)(C)C)C(=O)[C@@H]12`, for which the AC50 is 4.94 µM (active) in [9], 2.37 µM (active) in assay [10], 2.86 µM (active) in assay [11] and 3.09 µM (active) in [12].
With `COc1ccc(CCC(C)NCc2cc(OC)cc(OC)c2)cc1` (stereo unspecified), the AC50 in assay [9] was 7.92 µM (active); in assay [10], 6.55 µM (active); in assay [11] it was 9.46 µM (active); in assay [12] it was 14.1 µM (active).
Take `O=C(c1ccc(Cl)c([N+](=O)[O-])c1)N1CCN(S(=O)(=O)c2ccc(Cl)cc2)CC1`: the IC50 in assay [2] was 14.2 µM (active); in assay [3], 16.2 µM (active).
As for `O=C(N/N=C/C(Br)=C\c1ccccc1)c1ccco1`, the EC50 in assay [4] is > 350 µM (not active); in [5], 13.8 µM (active).
With `C[C@@H]1CN([C@H](C)CO)C(=O)c2cc(NS(=O)(=O)c3ccc(Cl)cc3)ccc2O[C@@H]1CN(C)Cc1ccc(Cl)c(Cl)c1`, the half-maximal activity concentration (AC50) in assay [14] is 4.7 µM (active).
In the case of `Cc1noc(C)c1S(=O)(=O)Nc1ccc2c(c1)C(=O)N([C@H](C)CO)C[C@H](C)[C@H](CN(C)Cc1ccc(C(=O)Nc3ccccc3N)cc1)O2`, the AC50 in assay [14] is 3.11 µM (active).
For the molecule `COc1ccc(NC(=O)Nc2cccc3c2O[C@@H](CN(C)Cc2ccc(C(=O)Nc4ccccc4N)cc2)[C@H](C)CN([C@H](C)CO)C3=O)cc1`, the AC50 in assay [14] was 2.41 µM (active).
Consider `COc1ccc(NC(=O)Nc2ccc3c(c2)C(=O)N([C@H](C)CO)C[C@H](C)[C@H](CN(C)Cc2ccc(-c4ccccc4)cc2)O3)cc1`, for which the AC50 in assay [14] is 4.77 µM (active).
As for `C[C@H](CO)N1C[C@H](C)[C@H](CN(C)Cc2ccc3c(c2)OCO3)Oc2ccc(NC(=O)Nc3ccccc3)cc2C1=O`, the AC50 in assay [14] is 8.77 µM (active).
On to `C[C@H](CO)N1C[C@H](C)[C@H](CN(C)Cc2ccc(C(=O)Nc3ccccc3N)cc2)Oc2ccc(NC(=O)Nc3ccccc3)cc2CC1=O`, for which the AC50 in assay [14] is 2.98 µM (active).
On to `Cc1nc2ccccc2c(=O)n1/N=C/c1ccc2ccccc2c1O`, for which the EC50 was > 150 µM (not active) in assay [15]; > 350 µM (not active) in assay [4]; > 150 µM (not active) in [16]; 44.6 µM (active) in assay [17]; > 350 µM (not active) in [5].
Turning to `O=C(CNC(=O)C(c1ccccc1)c1ccccc1)N/N=C/c1ccc(O)cc1O`, the EC50 was 17.5 µM (active) in assay [4] and > 350 µM (not active) in assay [5]. Besides, the AC50 in assay [18] is 2.59 µM (active).
As to `Cc1cc(C)nc(N/N=C/C2=C(O)CC(c3ccccc3)CC2=O)n1` (stereo unspecified), the EC50 in assay [19] was 11.3 µM (active); in assay [20], 14.7 µM (active); in [4], > 350 µM (not active); in assay [21], 14.5 µM (active); in assay [5], > 350 µM (not active).

The record behind these values is ChEMBL document CHEMBL1201862, “PubChem BioAssay data set” (2004).
